Assay results as given in publication PMC8213057, “Targeting ALK2: An Open Science Approach to Developing Therapeutics for the Treatment of Diffuse Intrinsic Pontine Glioma” (Journal of Medicinal Chemistry, 2020).

Legend:
[1] = biological target: PAK4 (Homo sapiens, UniProt O96013); test: biochemical; conditions: read-out: % enzyme activity, 1 μM; Run 1, Run 2
[2] = biological target: CDK6/cyclin D3 (Homo sapiens, UniProt Q00534); test: biochemical; conditions: read-out: % enzyme activity, 1 μM; Run 1, Run 2
[3] = biological target: PIM3 (Homo sapiens, UniProt Q86V86); conditions: 1 μM; Run 1, Run 2
[4] = biological target: T1, PKCnu/PRKD3 (Homo sapiens, UniProt O94806); conditions: 1 μM; Run 1, Run 2
T1 sequence (O94806 1-890): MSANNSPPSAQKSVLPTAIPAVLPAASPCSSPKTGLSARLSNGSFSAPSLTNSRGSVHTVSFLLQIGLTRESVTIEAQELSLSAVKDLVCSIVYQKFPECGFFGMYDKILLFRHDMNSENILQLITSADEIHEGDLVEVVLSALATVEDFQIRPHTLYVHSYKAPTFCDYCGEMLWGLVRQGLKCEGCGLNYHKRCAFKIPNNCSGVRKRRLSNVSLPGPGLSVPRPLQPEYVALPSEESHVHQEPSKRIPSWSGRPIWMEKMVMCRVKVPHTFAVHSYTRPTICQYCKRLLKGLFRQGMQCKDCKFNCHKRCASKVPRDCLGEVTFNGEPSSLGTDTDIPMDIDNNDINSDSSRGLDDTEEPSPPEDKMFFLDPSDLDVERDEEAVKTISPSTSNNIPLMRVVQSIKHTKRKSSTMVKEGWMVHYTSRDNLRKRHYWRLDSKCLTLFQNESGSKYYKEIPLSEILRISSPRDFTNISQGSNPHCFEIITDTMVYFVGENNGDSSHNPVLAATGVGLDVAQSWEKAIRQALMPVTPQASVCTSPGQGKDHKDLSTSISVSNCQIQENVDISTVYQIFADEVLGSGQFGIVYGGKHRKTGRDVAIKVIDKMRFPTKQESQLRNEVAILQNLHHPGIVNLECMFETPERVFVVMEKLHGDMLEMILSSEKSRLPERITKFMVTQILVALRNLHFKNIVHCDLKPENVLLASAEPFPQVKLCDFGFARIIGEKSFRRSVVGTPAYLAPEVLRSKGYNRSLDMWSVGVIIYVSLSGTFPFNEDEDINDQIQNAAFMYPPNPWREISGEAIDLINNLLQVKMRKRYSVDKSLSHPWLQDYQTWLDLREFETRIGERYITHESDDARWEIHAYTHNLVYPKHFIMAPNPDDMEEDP

[5] = biological target: T2, DYRK3 (Homo sapiens, UniProt O43781); conditions: 1 μM; Run 1, Run 2
T2 sequence (O43781 1-588): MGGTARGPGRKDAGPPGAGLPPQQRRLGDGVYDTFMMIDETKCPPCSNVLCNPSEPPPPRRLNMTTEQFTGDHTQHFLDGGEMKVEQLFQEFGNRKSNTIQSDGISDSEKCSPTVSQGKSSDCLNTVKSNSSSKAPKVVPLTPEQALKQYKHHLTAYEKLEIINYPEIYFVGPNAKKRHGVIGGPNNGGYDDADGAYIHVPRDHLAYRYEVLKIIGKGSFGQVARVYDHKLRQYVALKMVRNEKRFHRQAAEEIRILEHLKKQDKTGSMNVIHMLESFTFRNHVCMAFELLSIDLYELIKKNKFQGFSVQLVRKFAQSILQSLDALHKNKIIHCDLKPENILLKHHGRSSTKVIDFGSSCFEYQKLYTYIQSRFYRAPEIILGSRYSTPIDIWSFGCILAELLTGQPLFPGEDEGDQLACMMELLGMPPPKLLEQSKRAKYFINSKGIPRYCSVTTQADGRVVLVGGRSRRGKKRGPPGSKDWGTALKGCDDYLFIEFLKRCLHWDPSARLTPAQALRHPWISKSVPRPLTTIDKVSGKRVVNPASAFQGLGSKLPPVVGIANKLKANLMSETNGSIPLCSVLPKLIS

[6] = biological target: PIM2 (Homo sapiens, UniProt Q9P1W9); conditions: 1 μM; Run 1, Run 2
[7] = biological target: ERK2/MAPK1 (Homo sapiens, UniProt P28482); test: biochemical; conditions: read-out: % enzyme activity, 1 μM; Run 1, Run 2
[8] = biological target: T3, DYRK2 (Homo sapiens, UniProt Q92630); conditions: 1 μM; Run 1, Run 2
T3 sequence (Q92630 1-601): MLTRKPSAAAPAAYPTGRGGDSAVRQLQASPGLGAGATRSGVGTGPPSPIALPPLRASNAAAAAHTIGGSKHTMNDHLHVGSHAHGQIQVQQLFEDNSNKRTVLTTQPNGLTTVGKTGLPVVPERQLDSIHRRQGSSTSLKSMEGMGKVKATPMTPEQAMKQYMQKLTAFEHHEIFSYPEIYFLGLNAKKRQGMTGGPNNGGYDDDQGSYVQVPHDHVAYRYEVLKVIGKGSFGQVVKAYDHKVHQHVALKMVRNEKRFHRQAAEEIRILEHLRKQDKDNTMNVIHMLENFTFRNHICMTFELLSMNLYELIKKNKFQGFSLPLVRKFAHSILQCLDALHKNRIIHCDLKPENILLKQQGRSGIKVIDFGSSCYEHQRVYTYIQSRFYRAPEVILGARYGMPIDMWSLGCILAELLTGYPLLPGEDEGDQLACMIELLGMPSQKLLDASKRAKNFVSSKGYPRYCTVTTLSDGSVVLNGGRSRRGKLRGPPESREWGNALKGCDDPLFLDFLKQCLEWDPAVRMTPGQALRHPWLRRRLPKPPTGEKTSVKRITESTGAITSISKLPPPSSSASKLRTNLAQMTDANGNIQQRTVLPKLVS

[9] = biological target: LIMK1 (Homo sapiens, UniProt P53667); test: biochemical; conditions: read-out: % enzyme activity, 1 μM; Run 1, Run 2
LIMK1, sequence (P53667 whole entry): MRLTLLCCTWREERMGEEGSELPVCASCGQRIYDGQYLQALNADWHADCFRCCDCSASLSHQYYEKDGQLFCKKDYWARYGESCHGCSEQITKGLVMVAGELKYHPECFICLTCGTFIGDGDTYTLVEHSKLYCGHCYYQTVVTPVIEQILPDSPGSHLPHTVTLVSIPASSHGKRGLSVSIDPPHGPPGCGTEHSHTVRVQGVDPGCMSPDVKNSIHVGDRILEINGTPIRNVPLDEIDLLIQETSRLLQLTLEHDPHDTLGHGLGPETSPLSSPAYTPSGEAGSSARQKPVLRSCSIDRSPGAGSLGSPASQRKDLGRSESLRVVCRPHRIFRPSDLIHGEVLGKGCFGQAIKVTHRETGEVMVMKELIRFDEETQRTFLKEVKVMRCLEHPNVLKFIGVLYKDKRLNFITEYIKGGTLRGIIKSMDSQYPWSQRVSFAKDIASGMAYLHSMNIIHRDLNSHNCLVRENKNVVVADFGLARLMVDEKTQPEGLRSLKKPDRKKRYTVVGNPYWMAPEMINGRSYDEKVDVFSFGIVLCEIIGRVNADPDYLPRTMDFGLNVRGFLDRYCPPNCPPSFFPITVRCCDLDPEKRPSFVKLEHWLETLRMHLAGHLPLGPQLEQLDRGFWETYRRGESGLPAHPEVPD

CDK6/cyclin D3, sequence (Q00534 whole entry): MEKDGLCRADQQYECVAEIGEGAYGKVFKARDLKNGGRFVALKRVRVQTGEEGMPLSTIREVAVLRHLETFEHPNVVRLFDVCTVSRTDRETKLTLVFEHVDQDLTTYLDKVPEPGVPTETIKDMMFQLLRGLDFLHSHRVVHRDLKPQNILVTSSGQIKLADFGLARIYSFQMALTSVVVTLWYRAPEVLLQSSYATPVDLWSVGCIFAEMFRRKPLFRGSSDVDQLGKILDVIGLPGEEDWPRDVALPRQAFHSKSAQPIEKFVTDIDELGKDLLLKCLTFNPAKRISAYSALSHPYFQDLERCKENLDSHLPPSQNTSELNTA
CDK6/cyclin D3, sequence (P30281 whole entry partner): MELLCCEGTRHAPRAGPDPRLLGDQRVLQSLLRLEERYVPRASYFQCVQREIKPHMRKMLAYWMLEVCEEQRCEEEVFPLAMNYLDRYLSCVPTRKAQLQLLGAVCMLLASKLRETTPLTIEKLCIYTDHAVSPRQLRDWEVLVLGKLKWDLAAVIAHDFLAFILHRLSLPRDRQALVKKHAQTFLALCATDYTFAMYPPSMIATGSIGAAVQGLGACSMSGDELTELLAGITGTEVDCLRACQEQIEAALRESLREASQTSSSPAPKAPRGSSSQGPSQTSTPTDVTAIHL
ERK2/MAPK1, sequence (P28482 whole entry): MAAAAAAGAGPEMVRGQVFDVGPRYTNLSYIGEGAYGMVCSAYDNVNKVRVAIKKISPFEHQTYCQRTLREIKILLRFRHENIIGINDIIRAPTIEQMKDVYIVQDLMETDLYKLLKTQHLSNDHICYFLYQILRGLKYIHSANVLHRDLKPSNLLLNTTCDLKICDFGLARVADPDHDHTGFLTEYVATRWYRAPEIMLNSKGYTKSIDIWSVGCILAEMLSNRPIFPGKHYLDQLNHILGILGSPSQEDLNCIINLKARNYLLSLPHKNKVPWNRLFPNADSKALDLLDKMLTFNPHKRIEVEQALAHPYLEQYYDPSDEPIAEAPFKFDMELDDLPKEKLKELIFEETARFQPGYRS
PAK4, sequence (O96013 whole entry): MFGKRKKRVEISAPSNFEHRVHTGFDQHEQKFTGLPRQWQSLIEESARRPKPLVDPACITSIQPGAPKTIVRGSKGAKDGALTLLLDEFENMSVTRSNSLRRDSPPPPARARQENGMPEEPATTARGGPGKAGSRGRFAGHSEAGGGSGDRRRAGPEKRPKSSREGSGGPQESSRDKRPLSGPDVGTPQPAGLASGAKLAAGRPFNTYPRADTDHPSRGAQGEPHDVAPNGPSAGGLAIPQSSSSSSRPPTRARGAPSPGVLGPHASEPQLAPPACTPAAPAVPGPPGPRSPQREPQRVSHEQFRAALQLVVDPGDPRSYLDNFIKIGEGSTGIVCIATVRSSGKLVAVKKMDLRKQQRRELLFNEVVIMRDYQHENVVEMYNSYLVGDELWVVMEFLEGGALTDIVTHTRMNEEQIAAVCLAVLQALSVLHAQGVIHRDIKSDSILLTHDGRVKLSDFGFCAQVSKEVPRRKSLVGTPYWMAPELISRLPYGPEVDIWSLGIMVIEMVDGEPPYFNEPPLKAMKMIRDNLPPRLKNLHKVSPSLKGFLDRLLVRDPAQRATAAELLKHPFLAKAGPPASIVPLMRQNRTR
PIM2, sequence (Q9P1W9 whole entry): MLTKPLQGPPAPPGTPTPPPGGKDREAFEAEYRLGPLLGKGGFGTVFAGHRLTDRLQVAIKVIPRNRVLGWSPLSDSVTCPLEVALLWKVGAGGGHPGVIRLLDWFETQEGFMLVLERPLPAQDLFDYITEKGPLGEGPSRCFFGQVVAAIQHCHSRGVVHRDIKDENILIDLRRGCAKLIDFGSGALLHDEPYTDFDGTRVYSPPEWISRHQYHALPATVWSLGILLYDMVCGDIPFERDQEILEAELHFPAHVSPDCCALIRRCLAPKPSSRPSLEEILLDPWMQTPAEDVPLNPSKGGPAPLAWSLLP

| SMILES | remaining activity at 1 µM [1] | remaining activity at 1 µM [2] | % enzyme activity [3] | % enzyme activity [4] | % enzyme activity [5] | % enzyme activity [6] | remaining activity at 1 µM [7] | % enzyme activity [8] | remaining activity at 1 µM [9] |
| --- | --- | --- | --- | --- | --- | --- | --- | --- | --- |
| COc1cc(-c2cncc(-c3ccc(N4CCN(C)CC4)cc3)c2C)cc(F)c1C(N)=O [Compound 26a, 2-Fluoro-6-methoxy-4-(4-methyl-5-(4-(4-methylpiperazin-1-yl)phenyl)pyridin-3-yl)benzamide] | 98.5% | 86.3% | 99.10% | 83.26% | 88.30% | 95.51% | 92.5% | 95.06% | 65.1% |
| COc1cc(-c2cncc(-c3ccc(N4C[C@@H](C)N(C)[C@@H](C)C4)cc3)c2C)cc(F)c1C(N)=O [Compound 26c, 2-Fluoro-6-methoxy-4-(4-methyl-5-(4-((3R,5S)-3,4,5-trimethylpiperazin-1-yl)phenyl)pyridin-3-yl)benzamide] | 99.9% | 103% | 106.19% | 89.59% | 96.01% | 98.82% | 89.8% | 98.44% | 74.2% |
